Tested on: Gaeumannomyces graminis var. tritici (Ggt)
Experiment: In vitro Assay: mycelial growth of Ggt on minimal media agar plates containing test compound
Type: cell-based
Conditions: dark, 19-20° C., 4 to 5 days, diameter of mycelial growth; for inhibition at 0.1 ppm / inhibition at 1 ppm / inhibition at 10 ppm: Gaeumannomyces graminis; for inhibition at 0.1 ppm: read-out: In vitro (ppm) 0.1, Percent Inhibition; for inhibition at 1 ppm: read-out: In vitro (ppm) 1, Percent Inhibition; for inhibition at 10 ppm: read-out: In vitro (ppm) 10, Percent Inhibition
Method: The test compounds (0.25 mL of an appropriate stock solution in acetone) are incorporated into 25 mL minimal media agar [(prepared by autoclaving a solution of 17.5 g Czapek Dox broth (Difco), 7.5 g purified agar or Bacto-agar (Difco), and 500 mL distilled/deionized water, and then adding 50 μL of 1 mg/mL thiamine hydrochloride and 50 μL of 1 mg/mL biotin in 5% ethanol] and plates are prepared.
Each plate is inoculated by placing in a triangular shape three 4-mm plugs of Gaeumannomyces graminis var. tritici (Ggt) grown on the minimal media agar described above. The plates are incubated in the dark at 19-20° C. for 4 to 5 days. The growth of the fungus is measured as the diameter of the mycelial growth. The result is expressed as Percent Inhibition, calculated as [1-[(mm growth on treated plate −4)/(mm growth on control plate −4)]]×100.

In the case of `C[Si](C)(C)c1cccc(Cl)c1C(=O)NCc1cccs1` [Example 138, 2-Chloro-N-(2-thienylmethyl)-6-(trimethylsilyl)benzamide], the inhibition at 0.1 ppm (0.1 ppm in minimal media agar) is reported as 14%, the inhibition at 1 ppm (1 ppm in minimal media agar) is reported as 36% and the inhibition at 10 ppm (10 ppm in minimal media agar) is reported as 97%.

`CCNC(=O)c1c(Cl)cc(C(C)(C)C)cc1[Si](C)(C)C` [Example 235, 2-Chloro-4-(1,1-dimethylethyl)-N-ethyl-6-(trimethylsilyl)benzamide] gave an inhibition at 0.1 ppm (0.1 ppm in minimal media agar) of 3%, an inhibition at 1 ppm (1 ppm in minimal media agar) of less than 0% and an inhibition at 10 ppm (10 ppm in minimal media agar) of 70%.

`CC(NC(=O)c1c(Cl)cccc1[Si](C)(C)C)c1ccccc1` (stereo not drawn) [Example 161, 2-Chloro-N-(1-phenylethyl)-6-(trimethylsilyl)benzamide] gave an inhibition at 0.1 ppm (0.1 ppm in minimal media agar) of 22%, an inhibition at 1 ppm (1 ppm in minimal media agar) of 17% and an inhibition at 10 ppm (10 ppm in minimal media agar) of 61%.

For `CCNC(=O)c1cc(NC)ccc1[Si](C)(C)C` [Example 275, N-Ethyl-5-(methylamino)-2-(trimethylsilyl)benzamide], the inhibition at 0.1 ppm (0.1 ppm in minimal media agar) was 22%, the inhibition at 1 ppm (1 ppm in minimal media agar) was 81% and the inhibition at 10 ppm (10 ppm in minimal media agar) was 94%.

In the case of `CC(CO)NC(=O)c1c(Cl)cccc1[Si](C)(C)C` (stereo not drawn) [Example 154, 2-Chloro-N-(2-hydroxy-1-methylethyl)-6-(trimethylsilyl)benzamide], the inhibition at 0.1 ppm (0.1 ppm in minimal media agar) is reported as less than 0%, the inhibition at 1 ppm (1 ppm in minimal media agar) is reported as less than 0% and the inhibition at 10 ppm (10 ppm in minimal media agar) is reported as 69%.

Compound `CC(C)CSC(=O)c1c(Cl)cccc1[Si](C)(C)C` [Example 81, 2-Chloro-6-(trimethylsilyl)-benzenecarbothioic acid, S-(2-methylpropyl) ester] has an inhibition at 0.1 ppm (0.1 ppm in minimal media agar) of less than 0%, an inhibition at 1 ppm (1 ppm in minimal media agar) of less than 0% and an inhibition at 10 ppm (10 ppm in minimal media agar) of 46%.

Compound `C=Cc1ccc([Si](C)(C)C)c(C(=O)NCC)c1Cl` [Example 277, 2-Chloro-3-ethenyl-N-ethyl-6-(trimethylsilyl)benzamide] has an inhibition at 0.1 ppm (0.1 ppm in minimal media agar) of 69%, an inhibition at 1 ppm (1 ppm in minimal media agar) of 81% and an inhibition at 10 ppm (10 ppm in minimal media agar) of 94%.

With `CCN(CC)C(=O)c1c(C(=O)OC)ccc(F)c1[Si](C)(C)C` [Example 42, 2-[(Diethylamino)carbonyl]-4-fluoro-3-(trimethylsilyl)benzoic acid, methyl ester] the inhibition at 0.1 ppm (0.1 ppm in minimal media agar) was less than 0%, the inhibition at 1 ppm (1 ppm in minimal media agar) was less than 0% and the inhibition at 10 ppm (10 ppm in minimal media agar) was 30%.

For `CCNC(=O)c1c(Cl)ccc(N(C)C)c1[Si](C)(C)C` [Example 237, 6-Chloro-3-(dimethylamino)-N-ethyl-2-(trimethylsilyl)benzamide], the inhibition at 0.1 ppm (0.1 ppm in minimal media agar) was 44%, the inhibition at 1 ppm (1 ppm in minimal media agar) was 93% and the inhibition at 10 ppm (10 ppm in minimal media agar) was 96%.

`CCNC(=O)c1sc([S+](C)[O-])cc1[Si](C)(C)C` (stereo not drawn) [Example 260, N-Ethyl-5-(methylsulfinyl)-3-(trimethylsilyl)-2-thiophenecarboxamide] gave an inhibition at 0.1 ppm (0.1 ppm in minimal media agar) of less than 0%, an inhibition at 1 ppm (1 ppm in minimal media agar) of less than 0% and an inhibition at 10 ppm (10 ppm in minimal media agar) of 77%.

Work on `COc1ccc(CNC(=O)c2c(Cl)cccc2[Si](C)(C)C)cc1` [Example 136, 2-Chloro-N-[(4-methoxyphenyl)methyl]-6-(trimethylsilyl)benzamide] yielded an inhibition at 0.1 ppm (0.1 ppm in minimal media agar) of 3%, an inhibition at 1 ppm (1 ppm in minimal media agar) of 26% and an inhibition at 10 ppm (10 ppm in minimal media agar) of 100%.

Work on `CCNC(=O)c1ccccc1OC(C)(C)C` [Example 247, N-Ethyl-2-(1,1-dimethylethoxy)benzamide] yielded an inhibition at 0.1 ppm (0.1 ppm in minimal media agar) of less than 0%, an inhibition at 1 ppm (1 ppm in minimal media agar) of 16% and an inhibition at 10 ppm (10 ppm in minimal media agar) of 59%.

`CCN(CC)C(=O)c1c(C(=O)OC(C)C)ccc(F)c1[Si](C)(C)C` [Example 43, 2-[(Diethylamino)carbonyl]-4-fluoro-3-(trimethylsilyl)benzoic acid, 1-methylethyl ester] was tested, and the inhibition at 0.1 ppm (0.1 ppm in minimal media agar) was less than 0%, the inhibition at 1 ppm (1 ppm in minimal media agar) was less than 0% and the inhibition at 10 ppm (10 ppm in minimal media agar) was 63%.

Compound `CCN(CC)C(=O)c1c([Si](C)(C)C)coc1[Si](C)(C)C` [Example 250, N,N-Diethyl-2,4-bis(trimethylsilyl)-3-furancarboxamide] has an inhibition at 0.1 ppm (0.1 ppm in minimal media agar) of less than 0%, an inhibition at 1 ppm (1 ppm in minimal media agar) of less than 0% and an inhibition at 10 ppm (10 ppm in minimal media agar) of 41%.

Compound `CCN(CC)C(=O)c1c(C(F)F)cccc1[Si](C)(C)C` [Example 97, 2-(Difluoromethyl)-N,N-diethyl-6-(trimethylsilyl)benzamide] has an inhibition at 0.1 ppm (0.1 ppm in minimal media agar) of 7%, an inhibition at 1 ppm (1 ppm in minimal media agar) of 70% and an inhibition at 10 ppm (10 ppm in minimal media agar) of 100%.

Work on `CCNC(=O)c1c(F)cccc1[Si](C)(C)C` [Example 117, N-Ethyl-2-fluoro-6-(trimethylsilyl)benzamide] yielded an inhibition at 0.1 ppm (0.1 ppm in minimal media agar) of 36%, an inhibition at 1 ppm (1 ppm in minimal media agar) of 94% and an inhibition at 10 ppm (10 ppm in minimal media agar) of 97%.

With `CCNC(=O)C1=CSC(Cl)N1[Si](C)(C)C` (stereo not drawn) [Example 283, 2-Chloro-N-ethyl-3-(trimethylsilyl)-4-thiazolecarboxamide] the inhibition at 0.1 ppm (0.1 ppm in minimal media agar) was less than 0%, the inhibition at 1 ppm (1 ppm in minimal media agar) was 3% and the inhibition at 10 ppm (10 ppm in minimal media agar) was 42%.

For `CCNC(=O)Nc1c(Cl)cccc1[Si](C)(C)C` [Example 110, N-[2-Chloro-6-(trimethylsilyl)phenyl]-N′-ethylurea], the inhibition at 0.1 ppm (0.1 ppm in minimal media agar) was 7%, the inhibition at 1 ppm (1 ppm in minimal media agar) was 17% and the inhibition at 10 ppm (10 ppm in minimal media agar) was 45%.

`C[Si](C)(C)c1cccc(Cl)c1C(=O)NCc1ccccc1` [Example 31, 2-Chloro-N-(phenylmethyl)-6-(trimethylsilyl)benzamide] was tested, and the inhibition at 0.1 ppm (0.1 ppm in minimal media agar) was less than 0%, the inhibition at 1 ppm (1 ppm in minimal media agar) was 4% and the inhibition at 10 ppm (10 ppm in minimal media agar) was 96%.

`CCNC(=O)c1c([Si](C)(C)C)ccc(C(=O)OC)c1Cl` [Example 244, 2-Chloro-3-[(ethylamino)carbonyl]-4-(trimethylsilyl)benzoic acid, methyl ester] showed an inhibition at 0.1 ppm (0.1 ppm in minimal media agar) of 10%, an inhibition at 1 ppm (1 ppm in minimal media agar) of 20% and an inhibition at 10 ppm (10 ppm in minimal media agar) of 53%.

For `C[Si](C)(C)c1cccc(Cl)c1C(=O)NCC#N` [Example 142, 2-Chloro-N-(cyanomethyl)-6-(trimethylsilyl)benzamide], the inhibition at 0.1 ppm (0.1 ppm in minimal media agar) was less than 0%, the inhibition at 1 ppm (1 ppm in minimal media agar) was less than 0% and the inhibition at 10 ppm (10 ppm in minimal media agar) was 59%.

With `CCNC(=O)c1cc([N+](=O)[O-])ccc1[Si](C)(C)C` [Example 214, N-Ethyl-5-nitro-2-(trimethylsilyl)benzamide] the inhibition at 0.1 ppm (0.1 ppm in minimal media agar) was 3%, the inhibition at 1 ppm (1 ppm in minimal media agar) was 6% and the inhibition at 10 ppm (10 ppm in minimal media agar) was 77%.

Compound `CC(C)NC(=O)NC(=O)c1c(Cl)cccc1[Si](C)(C)C` [Example 173, 2-Chloro-N-(isopropylaminocarbonyl)-6-(trimethylsilyl)benzamide] has an inhibition at 0.1 ppm (0.1 ppm in minimal media agar) of 4%, an inhibition at 1 ppm (1 ppm in minimal media agar) of 12% and an inhibition at 10 ppm (10 ppm in minimal media agar) of 92%.

`C=CCNC(=O)c1sc(Cl)cc1[Si](C)(C)C` [Example 262, 5-Chloro-N-(2-propenyl)-3-(trimethylsilyl)-2-thiophenecarboxamide] was tested, and the inhibition at 0.1 ppm (0.1 ppm in minimal media agar) was 13%, the inhibition at 1 ppm (1 ppm in minimal media agar) was 70% and the inhibition at 10 ppm (10 ppm in minimal media agar) was 100%.

With `C[Si](C)(C)c1cccc(Cl)c1C(=O)NCc1ccc([N+](=O)[O-])cc1` [Example 137, 2-Chloro-N-[(4-nitrophenyl)-methyl]-6-(trimethylsilyl)-benzamide] the inhibition at 0.1 ppm (0.1 ppm in minimal media agar) was 17%, the inhibition at 1 ppm (1 ppm in minimal media agar) was 61% and the inhibition at 10 ppm (10 ppm in minimal media agar) was 100%.

`COCCNC(=O)c1c(Cl)cccc1[Si](C)(C)C` [Example 146, 2-Chloro-N-(2-methoxyethyl)-6-(trimethylsilyl)benzamide] was tested, and the inhibition at 0.1 ppm (0.1 ppm in minimal media agar) was 14%, the inhibition at 1 ppm (1 ppm in minimal media agar) was 65% and the inhibition at 10 ppm (10 ppm in minimal media agar) was 84%.

`CCNC(=O)c1c([Si](C)(C)C)ccc(C#N)c1Cl` [Example 229, 2-Chloro-3-cyano-N-ethyl-6-(trimethylsilyl)benzamide] gave an inhibition at 0.1 ppm (0.1 ppm in minimal media agar) of less than 0%, an inhibition at 1 ppm (1 ppm in minimal media agar) of 28% and an inhibition at 10 ppm (10 ppm in minimal media agar) of 88%.

`CCN(Cc1ccco1)C(=O)c1c(Cl)cccc1[Si](C)(C)C` [Example 125, 2-Chloro-N-ethyl-N-(2-furylmethyl)-6-(trimethylsilyl)benzamide] was tested, and the inhibition at 0.1 ppm (0.1 ppm in minimal media agar) was less than 0%, the inhibition at 1 ppm (1 ppm in minimal media agar) was less than 0% and the inhibition at 10 ppm (10 ppm in minimal media agar) was 89%.

Compound `CCNC(=O)c1c(Cl)cccc1-c1ccccc1C` [Example 72, 3-Chloro-N-ethyl-2′-methyl-[1,1′-biphenyl]-2-carboxamide] has an inhibition at 0.1 ppm (0.1 ppm in minimal media agar) of less than 0%, an inhibition at 1 ppm (1 ppm in minimal media agar) of 59% and an inhibition at 10 ppm (10 ppm in minimal media agar) of 69%.

For `CCN(CC)C(=O)c1c(Cl)cccc1N(C)C(C)(C)C` [Example 281, 2-Chloro-6-[(1,1-dimethylethyl)methylamino]-N,N-(diethyl)benzamide], the “In vitro (ppm) 0.1, Percent Inhibition” value (0.1 ppm in minimal media agar) was 4%, the “In vitro (ppm) 1, Percent Inhibition” value (1 ppm in minimal media agar) was “N (If the calculation resulted in “0” or less, as compared to the untreated control, a “N” is shown to indicate no control.)” and the “In vitro (ppm) 10, Percent Inhibition” value (10 ppm in minimal media agar) was 43%.

Compound `CCN(COC)C(=O)c1c(Cl)cccc1[Si](C)(C)C` [Example 46, 2-Chloro-N-ethyl-N-(methoxymethyl)-6-(trimethylsilyl)benzamide] has an inhibition at 0.1 ppm (0.1 ppm in minimal media agar) of 15%, an inhibition at 1 ppm (1 ppm in minimal media agar) of 11% and an inhibition at 10 ppm (10 ppm in minimal media agar) of 44%.

`C=CCN(SC)C(=O)c1sc(Cl)cc1[Si](C)(C)C` [Example 273, 5-Chloro-N-(methylthio)-N-2-propenyl-3-(trimethylsilyl)-2-thiophenecarboxamide] showed an inhibition at 0.1 ppm (0.1 ppm in minimal media agar) of 35%, an inhibition at 1 ppm (1 ppm in minimal media agar) of 48% and an inhibition at 10 ppm (10 ppm in minimal media agar) of 100%.

`C#CCNC(=O)c1c(Br)cccc1[Si](C)(C)C` [Example 206, 2-Bromo-N-2-propynyl-6-(trimethylsilyl)benzamide] gave an inhibition at 0.1 ppm (0.1 ppm in minimal media agar) of 86%, an inhibition at 1 ppm (1 ppm in minimal media agar) of 97% and an inhibition at 10 ppm (10 ppm in minimal media agar) of 100%.

Compound `CCNC(=O)c1c([Si](C)(C)C)ccc(C#C[Si](C)(C)C)c1Cl` [Example 276, 2-Chloro-N-ethyl-6-(trimethylsilyl)-3-[(trimethylsilyl)ethynyl]benzamide] has an inhibition at 0.1 ppm (0.1 ppm in minimal media agar) of less than 0%, an inhibition at 1 ppm (1 ppm in minimal media agar) of 63% and an inhibition at 10 ppm (10 ppm in minimal media agar) of 84%.
